The text below walks through data of patent US20150368203A1, “PHARMACEUTICAL FORMULATIONS CONTAINING IPIDACRINE AND THEIR USE FOR THE TREATMENT OF DISORDERS OF POTENCY AND DISORDERS OF OTHER FORMS OF SEXUAL ACTIVITY” (Limited Liability Company "KONSORTSIUM-PIK", priority 2012, published 2015).

One series has as its system patients with dementia. Particulars: patients in the treatment of Alzheimer's disease; cited from earlier work.
Series [1] concerns ovariectomized, hypoestrogenic rats. Particulars: introduction into the lateral ventricle in the brain; cited from earlier work.
For a further series, the system named is hemigonadectomized rats. The experiment in a line: Sexual activity of hemigonadectomized rats (hypogonadal state model). The class given is in vivo, rat. The source says: Evaluation of the effects of ipidacrine pharmaceutical formulation in rats with the reduced sexual activity caused by hemigonadectomy. The hemigonadectomy is similar to the pathological processes observed in the clinical picture and associated with the decrease in hormone production by the sex glands. The model of hypogonadal state in rats induced by the hemigonadectomy corresponds to the pathological processes observed in the clinical picture and associated with the decreased hormone production of the sex glands.
The study of the ipidacrine pharmacological activity was conducted in albino male rats. The following six groups of animals were formed: 1—intact, 2—treated with sildenafil, 3—galantamine, 4—ipidacrine, 5—gonadectomized, 6—control.
30 days before the start of the main study, the experiment was performed (3 times a week for 2 weeks), namely introduction of a receptive female to the male rat. The number of ejaculations was recorded. Those animals whose level of sexual activity was characterized by stable performance of 1-2 ejaculations during the period of the test were selected.
The selected male rats underwent the hemigonadectomy (at the right) performed under ether anesthesia. Then, during 7 and 14 days prior to the course administration of the drugs, daily testing of sexual activity of the hemigonadectomized animals was carried out. The latency period and the number of mounts, intromissions and ejaculations in different groups of the animals were considered.

Series [2] relates to male rats exposed to chronic stress (electrical current). The experiment in a line: Sexual activity of male rats in the model of chronic stress caused by electrical current exposure. It is filed as in vivo, rat. How it is done: The most appropriate model (in terms of the ease of implementation) is the model of psychogenic sexual dysfunction caused by exposure to physical factors (electrical current) in rats.
The pre-experiment with the animals was performed similar to that described in Example 2.
The two groups of the animals similar in the sexual activity level were formed: control (administration of distilled water), pharmaceutical formulation (on ipidacrine basis at a dose of 1.7 mg/kg). The animals of the control and experimental groups were daily exposed to current with a voltage of 30V for 30 min once a minute with an impulse with duration of 1 sec. The drug was administered 30 minutes before the stress, the testing was performed 60 min after the stress.

In series [3] the test system is hypoactive male rats with spontaneously reduced sexual function. The series can be described thus: Sexual activity of initially hypoactive male rats with spontaneously reduced sexual function. It is filed as in vivo, rat. The source says: This model is associated with the clinical conditions of anorgasmia or delayed ejaculation in humans. According to the results of the five-fold testing of the intact animals, the groups of hypoactive male rats were formed. The criterion for selection was average number of ejaculations of less than 0.5 according to the results of the five-fold testing.
To assess the effect of ipidacrine on sexual function of rats with the reduced sexual activity, the groups of the animals with initially low manifestations of copulatory and ejaculatory components of behavior were formed. This model reflects the clinical conditions of anorgasmia and delayed ejaculation. The effect of the drug on the integral indicator of the sexual function (number of ejaculations) at a dose of 0.85 to 5.1 mg/kg when administered daily is shown in FIG. 3

Take `COc1cc2c(cc1OC)C(=O)C(CC1CCN(Cc3ccccc3)CC1)C2` (stereo not shown) [donepezil]: the “sexual behavior (side effect)” value in the series on patients with dementia is “increase in the sexual behavior”.

Turning to `CNC(=O)Oc1ccc2c(c1)[C@]1(C)CCN(C)[C@@H]1N2C` [eserine], in series [1], the lordosis result is listed as “increases the lordosis”.

Consider `Nc1c2c(nc3c1CCC3)CCCC2` [ipidacrine, Ipidacrine], for which, in the series with hemigonadectomized rats (1.7 mg/kg once daily for 7 days, hemigonadectomized rats), the “level of the sexual activity (fluctuations due to external stressor effects)” value was “eliminates fluctuations in the level of the sexual activity”. For the same compound, the “time of maximum manifestation of the increase in sexual activity” value in the series with hemigonadectomized rats (5.1 mg/kg, 2 times a day for 14 days) fell in the range of 3 to 5 days. In addition, the “time of maximum manifestation of the increase in sexual activity” value in the series on hemigonadectomized rats (0.85 to 1.7 mg/kg, 2 times a day for 14 days) is recorded as 11 to 14 days. In addition, in the series on hemigonadectomized rats (0.85 to 5.1 mg/kg, 2 times a day for 14 days, hemigonadectomized rats), the “sexual activity of the animals” value is “dose-dependent increase in the sexual activity”. The “formation of sexual dysfunction” value in series [2] (1.7 mg/kg once a day prior to the stress) is given as “slower formation of sexual dysfunction”. Further, the “parameters of activity in the initial period” value in series [2] (1.7 mg/kg, 1 to 3 days, versus group nonsusceptible to stress) was “comparable to the parameters in the group nonsusceptible to the stress”. The frequency of ejaculations in series [2] (1.7 mg/kg, 3rd to 10th day of the experiment) was 60-100%. Moreover, in series [2] (1.7 mg/kg, 3rd to 10th day, versus stressed animals without treatment), the “rate of renewal of activity after the first ejaculation” value is listed as “higher rate of renewal of activity after the first ejaculation”. The “latency period of intromissions (7th day) and of intromissions and mounts (10th day) versus group without treatment” value in series [2] (1.7 mg/kg, 7th and 10th day) is reported as “Significant differences from the group without treatment”. Moreover, the number of ejaculations in series [2] (1.7 mg/kg, 10th and 14th day of the 14 day exposure to stress) is 0.4-0.6. Also, the “latency period of mounts and intromissions compared to animals nonsusceptible to stress” value in series [2] (1.7 mg/kg, starting from the 5th day) was “significant increase in the latency period of mounts and intromissions”. Moreover, in series [3] (0.85 mg/kg daily), the “average number of ejaculations in the group” value is 0.6-0.8 and the “rate of occurrence of ejaculations” value was determined as 80%. The “latency period of mounts and intromissions” value in series [3] (0.85 mg/kg daily, 7th to 14th day, versus background, trend level, similar changes in control) is “reduction of the latency period of mounts and intromissions”. In addition, in series [3] (0.85 mg/kg daily, some animals), the “time to renewal of sexual activity after the first ejaculation (on the average)” value was in the range of 4 to 6 min. The sexual activity result in series [3] (0.85 mg/kg daily, starting with the 2nd week) is reported as “increase in the sexual activity”. Moreover, the “number of animals able to ejaculate” value in series [3] (1.7 mg/kg) is listed as “up to 80%”. For the same compound, the “effect on the sexual function” value in series [3] (1.7 mg/kg, 14 days) was “activating effect on the sexual function throughout the whole observation period”. In addition, in series [3] (1.7 mg/kg, after the first administration), the “reduction in the latency time of mounts and intromissions” value fell in the range of 2 to 4 fold. In addition, the ejaculatory component result in series [3] (1.7 mg/kg, throughout the course of administration) is given as “increase of the ejaculatory component in comparison with the control”. The “efficacy in spontaneous sexual hypoactivity” value in series [3] (5.1 mg/kg) is reported as “effective only when administered for 5 days”. The “manifestation of the sexual activity on subsequent administration” value in series [3] (5.1 mg/kg, after the first 5 days) is listed as “negative effect on the manifestation of the sexual activity”. In series [3] (5.1 mg/kg, first 5 days), the “sexual activity (central motivational and ejaculatory components)” value was “increased the sexual activity in the animals during the first 5 days of observation”. Besides, the “values of indicators of sexual activity” value in series [3] (5.1 mg/kg, in 10, 14 days of the experiment) is “comparable to the control”. For the same compound, the “latency period of mounts” value in series [3] (5.1 mg/kg, in 3 days of observation, reduced from 33.0±5.35, p<0.05) is 9.3 ± 1.93 s. For the same compound, the “latency period of intromissions” value in series [3] (5.1 mg/kg, in 3 days of observation, reduced from 59.8 ±11.34, p<0.05) stood at 10.5 ±1.76.
